Experimental data: patent US8258137B2, “Process for release of biologically active species from mesoporous oxide systems” (Katholieke Universiteit Leuven, priority 2008, dated 2012)
≈ marks a conversion by molar mass, not a printed value. Like-named read-outs stand apart in the source and are kept apart here.

How the values were obtained:
[1] = background values, cited from earlier work
[2] = J. Voorspoels et al., The Veterinary Record (October 1999); cited from earlier work
[3] = Equilibrium solubility of itraconazole in FaSSIF; format: physicochemical; conditions: thermodynamic from solid; FaSSIF pH 6.5, 37° C., equilibration up to one week
Caco-2 cell monolayer = Caco-2 cell monolayer transport; format: in vitro ADME
Protocol: As receiver medium for Caco-2 transport experiments, 0.2 wt.-% TPGS (D-α-tocopherol polyethylene glycol 1000 succinate, commercially available from Eastman, Anglesey, England) in transport medium (hereinafter referred to as TM) [HBSS Hanks' Balanced Salt Solution supplemented with glucose to obtain a final concentration of 25 mM, commercially available from Sigma-Aldrich, Steinheim, Germany and Hepes-buffer (10 mM, pH 7.4, N-2-hydroxyethylpiperazine-N′-2-ethanesulfonic acid, commercially available from Lonza, Verviers, Belgium)] was used. To maintain sink conditions, TPGS was included in the medium added to the basolateral side of the Caco-2 cell monolayer.
Caco-2 cells were purchased from Cambrex Biosciences, Walkersville, Md., United States of America. Caco-2 cells were grown in 75 cm^2 culture flasks at 37° C. in an atmosphere of 5% CO2 and 90% relative humidity. Cells were passaged every 3-4 days (at 70-80% confluence) at a split ratio of 1 to 7. Cells were negative for Mycoplasma infection.
For transport experiments, Caco-2 cells were plated at a density of 88,500 cells/insert on Costar® Transwell membrane inserts (3 μm pore diameter, 12 mm diameter; commercially available from Corning Inc., New York). Confluence was reached within 3-4 days after seeding and the monolayers were used for the experiments 18-19 days post-seeding. Cell passages between 50 and 85 were used in the experiments. Transepithelial Electrical Resistance (hereinafter referred as TEER) values were measured with an EndOhm Voltohmmeter (commercially available from WPI, Aston, England). Only monolayers with initial TEER values higher than 200 Ω·cm^2 were used. All volumes amounted to 0.5 mL at the apical side of the monolayer and 1.5 mL at the basolateral side. After rinsing the monolayers 3 times with TM, a pre-incubation step (30 minutes) with TM (control) was performed.
[…] The samples were diluted with methanol (1:1 volume ratio) and itraconazole concentration was determined by HPLC. TEER values were measured again at the end of the experiment and were higher than 95% of the initial value.

[4] = Oral pharmacokinetics in rabbits; format: in vivo, New Zealand White rabbits; conditions: for Tmax: oral
Protocol: Prior to oral drug administration, the rabbits (n=5) were fasted overnight (>12 hours). After receiving the oral dose, 3 mL of water was administered to facilitate swallowing. After 4 hours, the rabbits had free access to food and water. A wash out period of seven days was allowed between subsequent dose administrations. […] Plasma was then transferred to a fresh Eppendorf tube and frozen at −20° C. prior to analysis.

[5] = Oral pharmacokinetics in dogs; conditions: for systemic exposure after oral dosing (HPLC-UV): dogs, oral 20 mg, 4 dogs
Protocol: Details of the dog's experiments were as follows: Marshall Beagle dogs (1.5-3 years of age, 7.1-10.0 kg, male) were housed according to Belgian laws and European regulations for animal experiments, and with free access to water and food. The comparative bioavailability study was performed according to a cross-over design (n=5). After administration of the capsules, 10 mL of water was given to facilitate swallowing. The evaluation of the formulation containing pure crystalline itraconazole was performed with 4 dogs. Blood samples (2.5 mL) were collected from the vena jugularis before dosing and at 0.25, 0.5, 1, 2, 3, 4, 6, 8 hours respectively after dosing. Immediately after blood collection, plasma was harvested by centrifugation at 2,500 g for 10 minutes. Plasma was then transferred to a fresh tube and frozen at −20° C. prior to analysis.
The mobile phase consisted of a methanol/25 mM sodium acetate mixture (78/22 by volume) at pH 3.3.
The maximal plasma concentrations (Cmax) and the time (Tmax) required to reach Cmax were determined from the individual time versus concentration profiles. Systemic exposure was determined by calculating AUC0-24h (rabbits) and AUC0-8h (dogs) using the linear trapezoidal rule. Pharmacokinetic parameters between the three formulations tested were statistically compared with the non-parametric Wilcoxon signed-rank test. The level of significance was set at p<0.03 for comparing two out of three groups.

[6] = male, Wistar, rat, in vivo
Protocol: Male Wistar rats of about 350 g were anaesthetized with a ketamin (Anesketin, commercially available from Eurovet, Heusden, Belgium)—xylazin (Xyl-M 2%, commercially available from VMD, Arendonk, Belgium) mixture (87.5 and 8.75 mg/kg respectively). The left jugular vein was cannulated with a heparinized (50 IU·mL^−1) polyethylene cannula (1.02 mm outer diameter; commercially available from Portex, Kent, United Kingdom) for blood supply from a donor rat during the perfusion experiment. A laparotomy was performed and the small intestine was exposed. A segment of the ileum (4-10 cm) was isolated by inserting two glass cannulas (4 mm o.d., 3 mm i.d.) at the proximal and distal end of the segment. Polyethylene tubing (6.5 mm o.d., 3.1 mm i.d.) was connected to the inlet cannula. The intestinal content was removed by perfusing the segment with pre-warmed TM (38° C.) at a flow rate of 3 mL/min. The perfusion pump (Minipuls3, commercially available from Gilson, Middleton, USA) was placed between the reservoir and the inlet cannula. After pre-incubation of the intestine with TM, the mesenteric vein draining the isolated part of the ileum was cannulated using the top end (1 cm) of a catheter (Insyte-W® 0.7×19 mm, commercially available from Beckton Dickinson, Salt Lake City, Utah). […]
Plasma concentrations of itraconazole were determined by HPLC as follows. […]

SMILES	water-solubility [1]	water-solubility ([1]; listed as Florfenicol)	oral bioavailability [2]	solubility thermodynamic [3]	total transport of itraconazole after 90 minutes (Caco-2 cell monolayer; donor: 10 μM supersaturated condition in FaSSIF (solvent shift))	total transport of itraconazole after 90 minutes (Caco-2 cell monolayer; donor: 75 μM supersaturated condition in FaSSIF (solvent shift))	total transport of itraconazole after 90 minutes (Caco-2 cell monolayer; donor: saturated itraconazole solution in FaSSIF)	Tmax ([4]; female, New Zealand White, rabbit, plasma, 8 mg)	Tmax ([4]; female, New Zealand White, rabbit, plasma, 8.4 mg)	AUC(0-t) ([4]; female, New Zealand White, rabbit, plasma, po, 8 mg, single oral capsule dose about 8 mg, n=5, read-out: AUC0-24 h itraconazole)	AUC0-24 h itraconazole ([4]; single oral capsule dose about 8 mg, n=5, listed as crystalline itraconazole)	systemic exposure after oral dosing (HPLC-UV) ([5]; listed as crystalline itraconazole)	systemic exposure after oral dosing (HPLC-UV) ([5]; listed as pure crystalline itraconazole)	AUC0-8 h itraconazole ([5]; male, Marshall Beagle, dog, in vivo, po, 20 mg)	Total transport after 60 minutes [6]	Total transport after 60 minutes ([6]; 75 μM)
CS(=O)(=O)c1ccc([C@@H](O)[C@@H](CF)NC(=O)C(Cl)Cl)cc1 [florfenicol, D-(threo)-1-p-methylsulfonyl phenyl-2-dichloroacetamido-3-fluoro-1-propanol]	1300 µg/mL	about 1.3 mg/mL	good oral bioavailability													
CCC(C)n1ncn(-c2ccc(N3CCN(c4ccc(OCC5COC(Cn6cncn6)(c6ccc(Cl)cc6Cl)O5)cc4)CC3)cc2)c1=O (centres unmarked) [itraconazole]				0.4 µM (≈ 0.282 µg/mL)	1.2 µg	2.2 µg	0.09 µg	9.8 h	10 h	0.521 µM·h	0.52 µM·h	no systemic itraconazole could be detected	no systemic concentrations of itraconazole and its main metabolite hydroxy-itraconazole could be observed	0 ± 0 µM·h	0.03 nmol/cm	0.50 nmol/cm
CC(C)(C)c1ccc(C(O)CCCN2CCC(C(O)(c3ccccc3)c3ccccc3)CC2)cc1 (centres unmarked) [terfenadine]	less than 0.01 mg/mL															
